Data set [1] relates to male diet-induced obese F344/Jcl rats. Put plainly: Anorectic effect in male diet-induced obese F344/Jcl rats. The data set is classed as in vivo, rat. To be noted: Rattus norvegicus, po, 48 h, 5 mg/mL suspension at 2 mL/kg, two administrations, food intake for 2 days vs control group, read-out: Food intake suppression rate (%). Here is the method:
Evaluation of Anorectic Effect Using Male Diet-Induced Obese F344/Jcl Rats
Male diet-induced obese F344/Jcl rats (44-50 weeks old) fed with a high-fat diet (D12451: Research Diets) from 5 weeks old were used. From before the start of experiment, the rats were singly housed, given a powder high-fat diet (D12451M: Research Diets), and habituated to oral administration with tap water. The food intake from the evening of the day before the start of experiment to the next morning was measured, and the rats were grouped based on both the food intake and the body weight of the previous day. In the evening of the day of the start of experiment and the next day, 0.5% methylcellulose solution was orally administered to the control group, and 0.5% methylcellulose suspension (5 mg/mL) of the test compound was orally administered to the compound administration group at 2 mL/kg (6 per group for both control group and compound administration group). The food intake for 2 days from the initial administration was measured. The food intake inhibition rate of each compound administration group to the control group was calculated.

The target of data set [2] is T1, HERG (Homo sapiens, UniProt Q12809).
T1 construct: host or cells: HERG.T.HEK (HEK cells, G418 selection)
T1 sequence (Q12809 whole entry): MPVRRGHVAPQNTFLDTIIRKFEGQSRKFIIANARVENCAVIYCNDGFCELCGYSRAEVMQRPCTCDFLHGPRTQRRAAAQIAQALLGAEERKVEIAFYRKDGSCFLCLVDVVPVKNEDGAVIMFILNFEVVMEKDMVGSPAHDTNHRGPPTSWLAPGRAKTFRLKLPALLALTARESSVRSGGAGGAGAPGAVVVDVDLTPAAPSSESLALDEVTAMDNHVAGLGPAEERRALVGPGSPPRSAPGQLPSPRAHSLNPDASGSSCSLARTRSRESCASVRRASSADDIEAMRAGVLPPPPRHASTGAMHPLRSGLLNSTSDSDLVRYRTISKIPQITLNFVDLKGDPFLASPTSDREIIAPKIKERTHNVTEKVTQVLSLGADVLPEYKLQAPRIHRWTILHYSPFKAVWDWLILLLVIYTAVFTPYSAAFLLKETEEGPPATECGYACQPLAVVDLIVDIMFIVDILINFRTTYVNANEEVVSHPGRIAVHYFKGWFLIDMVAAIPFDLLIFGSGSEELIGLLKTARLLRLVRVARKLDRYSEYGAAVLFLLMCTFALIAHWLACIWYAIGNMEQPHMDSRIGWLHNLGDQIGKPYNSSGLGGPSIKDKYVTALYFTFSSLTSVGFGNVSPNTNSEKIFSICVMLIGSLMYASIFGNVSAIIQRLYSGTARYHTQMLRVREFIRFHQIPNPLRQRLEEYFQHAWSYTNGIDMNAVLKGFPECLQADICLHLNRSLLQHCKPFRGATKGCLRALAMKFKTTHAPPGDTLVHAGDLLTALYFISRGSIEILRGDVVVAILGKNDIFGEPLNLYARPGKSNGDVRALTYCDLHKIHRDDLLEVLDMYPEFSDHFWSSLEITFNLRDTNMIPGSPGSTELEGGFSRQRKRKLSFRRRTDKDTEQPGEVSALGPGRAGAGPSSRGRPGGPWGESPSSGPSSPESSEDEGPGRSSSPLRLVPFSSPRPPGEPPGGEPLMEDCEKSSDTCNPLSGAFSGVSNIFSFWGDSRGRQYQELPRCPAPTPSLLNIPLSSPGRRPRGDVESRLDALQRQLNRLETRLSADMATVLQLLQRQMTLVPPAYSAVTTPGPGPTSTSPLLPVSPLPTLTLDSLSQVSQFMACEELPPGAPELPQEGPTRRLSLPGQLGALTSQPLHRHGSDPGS
Put plainly: HERG inhibitory activity, whole-cell patch clamp. It counts as cell-based. The following applies: 10 μM test compound; HERG.T.HEK cells; peak tail current. The source says: Evaluation of HERG Inhibitory Activity
MEM medium, MEM nonessential amino acid solution, sodium pyruvate solution and G418 sulfate solution (Geneticin) were purchased from Invitrogen Corporation (Carlsbad, Calif.). Bovine serum albumin (BSA, Fatty Acid Free) was a product of Wako Pure Chemical Industries, Ltd. (Osaka, Japan). Fetal calf serum (FCS) was a product of Trau Scientific Ltd. (Melbourne, Australia).
As HERG-expressing cell HERG.T.HEK, the cell obtained from Wisconsin ALUMNI Research Foundation was used. HERG.T.HEK was maintained and passaged at 37° C. in the presence of 5% CO2 using an MEM medium containing 10% FCS, 1 mM MEM nonessential amino acid, 1 mM sodium pyruvate and 500 μg/ml Geneticin.
80-90% confluent cells were collected by a trypsin treatment and plated on an IVF dish (Falcon, Franklin Lakes, N.J.). […] A preliminary stimulation was applied and the HERG electric current value (peak tail current) was measured when the electric current waveform was stabilized.
For measurement of the HERG electric current with addition of the test compound, the cells were first perfused with the extracellular fluid and, when the waveform was stabilized, the cells were perfused with an extracellular fluid containing 10 μM of a test compound. When the electric current waveform was stabilized under respective perfuse conditions, the HERG electric current was measured.
The HERG electric current inhibitory rate (%) of the test compound was calculated with the HERG electric current value without addition of the test compound as 100%.

On to `Cn1c(C2CC2)nc2ccc(-n3ccc(OCc4ccc(F)cc4)cc3=O)cc21` [Example 2, 1-(2-Cyclopropyl-1-methyl-1H-benzimidazol-6-yl)-4-((4-fluorobenzyl)oxy)pyridin-2(1H)-one], for which, in data set [1], the inhibition in vivo at 5000 µg/mL, 10 mg/kg stood at 27.8%. In data set [2], the “HERG inhibitory action (%)” value was 27.3%.
The like results for `CCc1nc2ccc(-n3ccc(OCc4ccc(F)cc4)cc3=O)cc2n1C` [Example 63, 1-(2-Ethyl-1-methyl-1H-benzimidazol-6-yl)-4-((4-fluorobenzyl)oxy)pyridin-2(1H)-one] were, in that order, 45.5% and 23.0%.
The like results for `Cc1nc2ccc(-n3ccc(OCc4ccc(F)cc4)cc3=O)cc2n1C` [Example 254, 1-(1,2-Dimethyl-1H-benzimidazol-6-yl)-4-((4-fluorobenzyl)oxy)pyridin-2(1H)-one] were, in that order, 38.7% and 26.4%.

The values are drawn from patent US9365540B2, “Benzimidazole derivatives as MCH receptor antagonists” (Takeda Pharmaceutical Company Limited, priority 2012, dated 2016).
